Measured values reported in patent US20230157308A1, “PERMEABILIZED MICROBIAL CELL CATALYSTS” (DANMARKS TEKNISKE UNIVERSITET, priority 2020, published 2023).

Columns and labels:
S. thermophilus CS1980 [1] = assay: Lactose hydrolysis: monolaurin- versus ethanol-permeabilized cells; format: cell-based, Streptococcus thermophilus; settings: for stability of the whole-cell catalyst: 100 μg/ml monolaurin or 45% (v/v) ethanol, 10 min at 28° C.
Method: S. thermophilus CS1980 was permeabilized for 10 minutes at 28° C. using (i) 100 μg/ml monolaurin in POM buffer or (ii) 45% (v/v) ethanol for 10 minutes, or (iii) not permeabilized (control). Hydrolysis of lactose in POM buffer (50 g/l lactose) at 50° C. was carried out at a cell concentration of approximately 100 mg/l.

[2] = system: S. thermophilus CS1980 cells; assay: Lactose hydrolysis by permeabilized S. thermophilus CS1980 cells; format: cell-based, Streptococcus thermophilus; settings: for effectiveness in cell permeabilization: 100 mg/L agent, 100 mg/l S. thermophilus cells, POM buffer
Method: S. thermophilus strains were grown in 500-ml Erlenmeyer flasks containing 200 mL of medium at 37° C. for 16 h without agitation. 2 mL of an overnight culture was used as inoculum. Cells were collected by centrifugation at 10,000×g for 10 min at 4° C., washed once with sterile POM buffer (50 mM K2HPO4/KH2PO4, 1 mM MgCl2, pH 7.4) and finally re-suspended in POM buffer to an optical density (OD600) of 0.3, corresponding to approximately 0.1 g/L (dry weight basis). For permeabilization, cell suspensions were dispensed into sterile tubes (1 mL per tube) and centrifuged in a microcentrifuge at 10,000×g for 5 min at 4° C. After decanting the supernatants, cell pellets were resuspended in 1 mL POM buffer containing different concentrations (10 mg/l and 100 mg/l) of monolaurin (Toronto Research Chemicals, Toronto, Canada), and were maintained for 10 min at 28° C. Non permeabilized cells in POM buffer were used as control. 100 mg/l of monomyristin was also tested as premeabilization agent. The cells were resuspended in POM buffered lactose (50 g/L) solution. The hydrolysis was carried out at 50° C. for 2 h. The concentration of lactose, glucose and galactose was determined on an Ultimate 3000 high-performance liquid chromatography (HPLC) system (Dionex) equipped with an Aminex HPX-87H column (Bio-Rad) and a Shodex RI-101 detector (Showa Denko K.K.). The column oven temperature was set to 60° C., and the mobile phase consisted of 5 mM H2SO4. The flow rate used was 0.5 mL/min.

[3] = system: Lactococcus lactis biovar. diacetylactis RD1M5 cells; assay: Acetoin production from pyruvate by permeabilized RD1M5 cells; format: cell-based; settings: 100 mg/L monolaurin, 20 min at 30° C.; 700 mg/L cells, 100 mM pyruvate, 1 h
Method: Lactococcus lactis biovar. diacetylactis RD1M5 was permeabilized as described in example 1.2, using 100 mg/L monolaurin for 20 min at 30° C. 700 mg/L cells were suspended in POM buffer solution with 100 mM pyruvate. After 1 h, the cells were removed and the supernatant was used to quantify the acetoin concentration. Quantification of lactose, lactate, acetoin, and citrate were carried out using an Ultimate high-performance liquid chromatography system equipped with a Aminex HPX-87H column (300×7.8 mm column) (Bio-Rad, Hercules, USA) and a Shodex RI-101 refractive index detector (Showa Denko K.K., Tokyo, Japan). The mobile phase was 5 mM H2SO4 with a flow rate of 0.5 mL/min and the column oven temperature was maintained at 60° C.

S. thermophilus CS1980 [4] = assay: Permeabilization of S. thermophilus CS1980 at different temperatures; format: cell-based, Streptococcus thermophilus; settings: permeabilization temperatures 20-50° C.
Method: […] Controls are prepared without addition of monolaurin in the permeabilization step. Hydrolysis of lactose by monolaurin-treated cells is carried out in a POM buffered solution.

## CCO [ethanol, reference compound]
S. thermophilus CS1980 [1]
  stability of the whole-cell catalyst: compromised the stability of the whole-cell catalyst

## CCCCCCCCCCCCCC(=O)OCC(O)CO (stereo not drawn) [Monomyristin, monomyristin]
[2]
  effectiveness in cell permeabilization: same effectiveness in cell permeabilization as monolaurin

## CCCCCCCCCCCC(=O)OCC(O)CO (stereo not drawn) [monolaurin]
[2]
  effectiveness in cell permeabilization: efficiently permeabilizes the cells
[2]; cells permeabilized 10 min at 28° C., 50 g/L lactose, 2 hours at 50° C., 100 mg/L cells (dry weight)
  lactose hydrolyzed by permeabilized cells: 55%
[2]; too low monolaurin concentration (10 mg/l tested), 50 g/L lactose, 50° C.
  hydrolysis by cells treated with too low monolaurin concentration: neglectable
[3]
  acetoin produced from pyruvate compared to non-treated cells: much higher concentrations of acetoin
S. thermophilus CS1980 [4]
  efficiency of permeabilization over temperature range: equally efficient
S. thermophilus CS1980 [1]
  stability of the whole-cell catalyst: higher stability
S. thermophilus CS1980 [1]; permeabilized 10 min at 28° C., 100 μg/ml monolaurin, 50 g/l lactose, 50° C., about 100 mg/l cells
  lactose conversion by permeabilized cells: perform better than the control as well as the ethanol-permeabilized cells
